From US5846720A, “Methods of determining chemicals that modulate expression of genes associated with cardiovascular disease” (Oncogene Science, Inc., priority 1996, dated 1998)

How the values were obtained:
[1] = tested on: 5637 bladder carcinoma cells; assay: G-CSF secretion, two-antibody sandwich immunoassay; format: cell-based, human; conditions: 48 hours, serum-containing media
Description: Supernatants from 5637 bladder carcinoma cells incubated with chemicals registering as positives in the G-CSF promoter/luciferase high throughput assay were assayed for secreted G-CSF protein using the two-antibody sandwich immunoassay (83). The G-CSF Assay kit manufactured by Oncogene Science, Inc. was used and the manufacturer's instructions were followed.
The levels of G-CSF in the cell supernatants were determined by a sandwich-antibody assay as described in above (FIG. 42).

[2] = tested on: G-CSF mRNA; assay: S1 nuclease protection, G-CSF mRNA; format: cell-based, human
Description: (§1) S1 Nuclease protection assays were carried out as described in reference 118.
(§2) To further confirm, that compounds that had been identified in a luciferase expression assay using a G-CSF specific reporter cell line would be active in inducing transcription of the endogenous G-CSF gene, cells from the parental cell line 5637 used to construct the reporter cell line were incubated with cycloheximide (25 ug/ml), DMSO (0.5%,solvent control) and low, medium and high concentrations of the compounds 542 (10, 50, 250 μM),1255 (20, 100, 500 uM), 1793(0.25, 1.2, 6.25 μM) and 1904 (20, 100 uM) for 18 hours. RNA was extracted and the concentration of G-CSF, GM-CSF and gamma-actin mRNA was determined by the S1 protection method as described in above. The positions of G-CSF GM-CSF and gamma-actin specific protected fragments are indicated (G, GM, A) at the left side of the gel (FIG. 37).

[3] = tested on: GM-CSF mRNA; assay: S1 nuclease protection, GM-CSF mRNA; format: cell-based, human; conditions: 5637 cells, 18 hours
Description: as §1, §2

[4] = tested on: FRE cells; assay: MTT respiratory inhibition cytotoxicity assay versus luciferase induction in G21; format: cell-based; conditions: G21 reporter cells vs FRE cells, 6 hours
From the text: To determine cytotoxic concentrations of chemicals registering as positives in the high throughput luciferase assay the MTT cytotoxicity assay was employed (82). In this assay, a tetrazolium salt [3-(4,5-dimethylthiazol-2-yl)-2,5-diphenyl -tetrazolium bromide, MTT] is reduced to a colored formazon product by reducing enzymes present only in living metabolically active cells.
To address the question whether the induction of G-CSF, and GM-CSF transcription by the compound #542 was a specific effect or rather a phenomenon linked to a potential sensitivity of these promoters to stress exerted by toxic compounds, the concentration dependency of induction of luciferase activity in the reporter cell line G21 was compared to the concentration dependency of inhibition of respiration in FRE cells. Cells were seeded into 96 well microtiter plates (20,000 cells/well) and cultured overnight. Compound #542 was added at various concentrations and the cells were incubated for 6 hours. Luciferase activity was determined as described above. The MTT-colorimetric assay was carried out on identically treated samples of FRE cells. Induction of luciferase reporter signal (plain line) and on inhibition of respiration (dashed line) are plotted versus the concentrations of compound (FIG. 40). […]

SMILES: Nc1nc(=O)n([C@H]2C[C@H](O)[C@@H](CO)O2)cc1Br [#542]
- G-CSF secretion [1]: increased G-CSF secretion
- amount of G-CSF mRNA (S1 nuclease protection) ([2]; 5637 cells, 18 hours): increased mRNA production
- levels of endogenous G-CSF mRNA ([2]; method not stated at the place): stimulate levels of endogenous G-CSF mRNA
- amount of GM-CSF mRNA (S1 nuclease protection) [3]: increased the amount of GM-CSF mRNA
- factor between ED50 for induction of luciferase activity and ED50 for inhibition of respiration [4]: ~10 factor
